Target: T1, Potassium-transporting ATPase (Homo sapiens, UniProt P20648+P51164)
Assay: Evaluated for the inhibition of H+/K+ ATPase enzyme from fundic mucosa of white rabbits at 100 uM
Type: protein-complex assay
Conditions: Oryctolagus cuniculus, target entry is the homologue from another species

T1 sequence (P20648 whole entry): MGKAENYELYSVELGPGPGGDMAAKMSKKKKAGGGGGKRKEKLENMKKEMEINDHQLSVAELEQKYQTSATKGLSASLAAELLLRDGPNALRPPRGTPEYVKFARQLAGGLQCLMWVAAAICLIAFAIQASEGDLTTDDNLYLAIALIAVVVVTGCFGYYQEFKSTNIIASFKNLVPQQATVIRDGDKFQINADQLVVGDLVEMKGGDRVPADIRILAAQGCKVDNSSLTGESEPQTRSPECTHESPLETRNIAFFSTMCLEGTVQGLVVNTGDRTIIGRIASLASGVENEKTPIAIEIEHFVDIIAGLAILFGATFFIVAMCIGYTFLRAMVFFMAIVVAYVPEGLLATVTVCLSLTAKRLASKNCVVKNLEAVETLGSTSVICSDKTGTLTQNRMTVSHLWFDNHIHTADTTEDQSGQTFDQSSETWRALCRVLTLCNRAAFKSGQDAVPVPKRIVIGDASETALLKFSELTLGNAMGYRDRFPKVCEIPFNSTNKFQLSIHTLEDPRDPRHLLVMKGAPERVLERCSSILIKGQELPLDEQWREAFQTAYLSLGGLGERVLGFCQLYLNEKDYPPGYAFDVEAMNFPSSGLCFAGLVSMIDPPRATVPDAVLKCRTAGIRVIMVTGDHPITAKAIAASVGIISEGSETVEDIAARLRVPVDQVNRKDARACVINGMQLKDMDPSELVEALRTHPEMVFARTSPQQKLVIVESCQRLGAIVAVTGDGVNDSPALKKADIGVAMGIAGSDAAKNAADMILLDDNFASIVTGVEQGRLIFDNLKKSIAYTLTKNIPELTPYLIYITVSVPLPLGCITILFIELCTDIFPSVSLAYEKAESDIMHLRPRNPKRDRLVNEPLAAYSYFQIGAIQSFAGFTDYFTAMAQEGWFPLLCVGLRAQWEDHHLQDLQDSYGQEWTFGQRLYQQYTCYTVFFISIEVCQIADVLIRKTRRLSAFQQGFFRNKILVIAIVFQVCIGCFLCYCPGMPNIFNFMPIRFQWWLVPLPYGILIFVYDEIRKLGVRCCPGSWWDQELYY
T1 sequence (P51164 whole entry): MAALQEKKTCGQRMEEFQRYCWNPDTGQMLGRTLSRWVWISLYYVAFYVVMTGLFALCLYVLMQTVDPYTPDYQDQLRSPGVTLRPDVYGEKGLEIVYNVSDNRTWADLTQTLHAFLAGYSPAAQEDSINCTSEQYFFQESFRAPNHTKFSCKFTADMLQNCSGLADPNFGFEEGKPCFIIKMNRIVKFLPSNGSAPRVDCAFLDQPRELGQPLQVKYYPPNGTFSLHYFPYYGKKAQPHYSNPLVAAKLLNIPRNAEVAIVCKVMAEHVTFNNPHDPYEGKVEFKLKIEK

| inhibition | SMILES |
| --- | --- |
| 65% | CCCCN(CCCC)CCCOc1ccc(-c2nc(-c3ccccc3)sc2C)cc1 |

Target: T2, Potassium-transporting ATPase (Homo sapiens, UniProt P20648)
Assay: Antisecretory activity evaluated by the inhibition of 14C -AP uptake in isolated rabbit parietal cells stimulated by exogenous histamine
Type: functional, Oryctolagus cuniculus
Conditions: not given

| SMILES | IC50 |
| --- | --- |
| CN/C(=N\CCSCc1nc[nH]c1C)NC#N [CIMETIDINE] | 820 nM |

Same assay, conditions: target entry is the homologue from another species

| IC50 | SMILES |
| --- | --- |
| 280 nM | C(=C\c1nc2ccccc2o1)/c1ccc(OCCCCCn2ccnc2)cc1 |
| 270 nM | CCCCN(CCCC)CCCOc1ccc(-c2nc(-c3ccccc3)sc2C)cc1 |
| 2300 nM | CCCCN(CCCC)CCCOc1ccc(/C=C/c2nc3ccccc3[nH]2)cc1 |
| 390 nM | CCCN(CCC)CCCCOc1ccc(/C=C/c2nc3ccccc3o2)cc1.Cl |
| 1800 nM | CCCCN(CCCC)CCCOc1ccc(-c2nc3ccccc3[nH]2)cc1 |
| 210 nM | CCCN(CCC)CCCOc1ccc(/C=C/c2nc3ccccc3s2)cc1 |
| 2100 nM | CCCCN(CCCC)CCCOc1ccc(-c2csc(-c3ccc(Cl)cc3)n2)cc1 |
| 340 nM | CCCCN(CCCC)CCCOc1ccc(-c2nc(-c3ccccc3)sc2CC)cc1 |
| 160 nM | C(=C\c1nc2ccccc2s1)/c1ccc(OCCCCN2CCCC2)cc1 |
| 180 nM | C(=C\c1nc2ccccc2s1)/c1ccc(OCCCN2CCCCC2)cc1 |
| 250 nM | CCCCN(CCCC)CCCOc1ccc(-c2nc3ccccc3s2)cc1 |
| 370 nM | FC(F)(F)c1ccc(-c2nc(-c3ccc(OCCCn4ccnc4)cc3)cs2)cc1 |
| 450 nM | CCCCN(CCCC)CCCOc1ccc(-c2csc(-c3ccccc3)n2)cc1.Cl |
| 120 nM | CCN(CC)CCCOc1ccc(-c2csc(-c3ccccc3)n2)cc1 |
| 400 nM | CCCCN(CCCC)CCCOc1ccc(/C=C/c2nc3cc(Cl)ccc3s2)cc1 |
| 80 nM | CCCCN(CCCC)CCCOc1ccc(/C=C/c2nc3ccc(OC)cc3o2)cc1 |
| 220 nM | CCCN(CCC)CCCOc1ccc(/C=C/c2nc3ccccc3o2)cc1 |
| 180 nM | CCCCN(CCCC)CCCCOc1ccc(/C=C/c2nc3ccccc3o2)cc1 |
| 170 nM | C(=C\c1nc2ccccc2o1)/c1ccc(OCCCCN2CCCC2)cc1 |
| 1650 nM | CCCCN(CCCC)CCCOc1ccc(-c2csc(-c3cccnc3)n2)cc1 |
| 80 nM | Cl.O.c1ccc(-c2nc(-c3ccc(OCCCn4ccnc4)cc3)cs2)cc1 |
| 260 nM | CCCCN(CCCC)CCCOc1ccc(/C=C/c2nc3ccc(OC)cc3s2)cc1 |
| 210 nM | CCCN(CCC)CCCOc1ccc(-c2nc3ccccc3s2)cc1 |
| 260 nM | CCCCN(CCCC)CCOc1ccc(/C=C/c2nc3ccccc3o2)cc1 |
| 1500 nM | CCCCN(CCCC)CCCOc1ccc(-c2csc(-c3ccc(C)cc3)n2)cc1 |
| 1500 nM | CCCCN(CCCC)CCCOc1ccc(-c2csc(C)n2)cc1 |
| 820 nM | c1ccc(-c2nc(-c3ccc(OCCCCn4ccnc4)cc3)cs2)cc1 |

Organism: Rattus norvegicus
Assay: Effective dose required for the inhibition of total acid secretion in pylorus-ligated rats
Type: functional
Conditions: not given

| SMILES | ED50 |
| --- | --- |
| CCCN(CCC)CCCCOc1ccc(/C=C/c2nc3ccccc3o2)cc1.Cl | 11.5 mg/kg |
| CN/C(=N\CCSCc1nc[nH]c1C)NC#N [CIMETIDINE] | 32 mg/kg |

System: Rattus norvegicus
Assay: Effective dose required for the inhibition of total acid secretion in pylorus-ligated rats at 20 mg/kg
Type: functional
Conditions: not given

| SMILES | inhibition in vivo at 20 mg/kg | ED50 |
| --- | --- | --- |
| CCCCN(CCCC)CCCOc1ccc(-c2nc(-c3ccccc3)sc2C)cc1 | 36% | – |
| CCCN(CCC)CCCOc1ccc(/C=C/c2nc3ccccc3s2)cc1 | 42% | – |
| CCCCN(CCCC)CCCOc1ccc(-c2csc(-c3ccccc3)n2)cc1.Cl | 75% | 17 mg/kg |
| Cl.O.c1ccc(-c2nc(-c3ccc(OCCCn4ccnc4)cc3)cs2)cc1 | 91% | 5.1 mg/kg |

System: Rattus norvegicus
Assay: Percent inhibition of total acid secretion in pylorus-ligated rats at an id dose of 40 mg/kg
Type: functional
Conditions: route intraduodenal

| SMILES | inhibition in vivo at 40 mg/kg |
| --- | --- |
| CCCCN(CCCC)CCCOc1ccc(-c2nc3ccccc3[nH]2)cc1 | 24% |
| CCN(CC)CCCOc1ccc(-c2csc(-c3ccccc3)n2)cc1 | 82% |
| CCCCN(CCCC)CCCOc1ccc(/C=C/c2nc3ccc(OC)cc3o2)cc1 | 64% |
| CCCCN(CCCC)CCCCOc1ccc(/C=C/c2nc3ccccc3o2)cc1 | 14% |
| C(=C\c1nc2ccccc2o1)/c1ccc(OCCCCN2CCCC2)cc1 | 24% |
| c1ccc(-c2nc(-c3ccc(OCCCCn4ccnc4)cc3)cs2)cc1 | 31% |

System: Rattus norvegicus
Assay: Effective dose required for the inhibition of total acid secretion in pylorus-ligated rats at 40 mg/kg
Type: functional
Conditions: not given

| SMILES | inhibition in vivo at 40 mg/kg |
| --- | --- |
| CCCN(CCC)CCCOc1ccc(-c2nc3ccccc3s2)cc1 | 42% |

Target: T2, Potassium-transporting ATPase
Assay: (§1) Antisecretory activity evaluated by the inhibition of 14C -AP uptake in isolated rabbit parietal cells stimulated by dibutyryl cyclic adenosine 3', 5' -monophosphate (dcAMP)
Type: functional, Oryctolagus cuniculus
Conditions: not given

| SMILES | IC50 |
| --- | --- |
| CN/C(=N\CCSCc1nc[nH]c1C)NC#N [CIMETIDINE] | > 100000 nM |

Same assay, conditions: target entry is the homologue from another species

| IC50 | SMILES |
| --- | --- |
| 230 nM | C(=C\c1nc2ccccc2o1)/c1ccc(OCCCCCn2ccnc2)cc1 |
| 230 nM | CCCCN(CCCC)CCCOc1ccc(-c2nc(-c3ccccc3)sc2C)cc1 |
| 1500 nM | CCCCN(CCCC)CCCOc1ccc(/C=C/c2nc3ccccc3[nH]2)cc1 |
| 110 nM | CCCN(CCC)CCCCOc1ccc(/C=C/c2nc3ccccc3o2)cc1.Cl |
| 1200 nM | CCCCN(CCCC)CCCOc1ccc(-c2nc3ccccc3[nH]2)cc1 |
| 140 nM | CCCN(CCC)CCCOc1ccc(/C=C/c2nc3ccccc3s2)cc1 |
| 1800 nM | CCCCN(CCCC)CCCOc1ccc(-c2csc(-c3ccc(Cl)cc3)n2)cc1 |
| 240 nM | CCCCN(CCCC)CCCOc1ccc(-c2nc(-c3ccccc3)sc2CC)cc1 |
| 260 nM | C(=C\c1nc2ccccc2s1)/c1ccc(OCCCCN2CCCC2)cc1 |
| 210 nM | C(=C\c1nc2ccccc2s1)/c1ccc(OCCCN2CCCCC2)cc1 |
| 2600 nM | CCCCN(CCCC)CCCOc1ccc(-c2nc3ccccc3s2)cc1 |
| 620 nM | FC(F)(F)c1ccc(-c2nc(-c3ccc(OCCCn4ccnc4)cc3)cs2)cc1 |
| 420 nM | CCCCN(CCCC)CCCOc1ccc(-c2csc(-c3ccccc3)n2)cc1.Cl |
| 90 nM | CCN(CC)CCCOc1ccc(-c2csc(-c3ccccc3)n2)cc1 |
| 500 nM | CCCCN(CCCC)CCCOc1ccc(/C=C/c2nc3cc(Cl)ccc3s2)cc1 |
| 50 nM | CCCCN(CCCC)CCCOc1ccc(/C=C/c2nc3ccc(OC)cc3o2)cc1 |
| 350 nM | CCCN(CCC)CCCOc1ccc(/C=C/c2nc3ccccc3o2)cc1 |
| 240 nM | C(=C\c1nc2ccccc2o1)/c1ccc(OCCCCN2CCCC2)cc1 |
| 880 nM | CCCCN(CCCC)CCCOc1ccc(-c2csc(-c3cccnc3)n2)cc1 |
| 20 nM | Cl.O.c1ccc(-c2nc(-c3ccc(OCCCn4ccnc4)cc3)cs2)cc1 |
| 460 nM | CCCCN(CCCC)CCCOc1ccc(/C=C/c2nc3ccc(OC)cc3s2)cc1 |
| 140 nM | CCCN(CCC)CCCOc1ccc(-c2nc3ccccc3s2)cc1 |
| 540 nM | CCCCN(CCCC)CCOc1ccc(/C=C/c2nc3ccccc3o2)cc1 |
| 3000 nM | CCCCN(CCCC)CCCOc1ccc(-c2csc(-c3ccc(C)cc3)n2)cc1 |
| 8400 nM | CCCCN(CCCC)CCCOc1ccc(-c2csc(C)n2)cc1 |
| 310 nM | c1ccc(-c2nc(-c3ccc(OCCCCn4ccnc4)cc3)cs2)cc1 |

Target: T1, Potassium-transporting ATPase
Assay: as §1
Type: functional, Oryctolagus cuniculus
Conditions: target entry is the homologue from another species

| IC50 | SMILES |
| --- | --- |
| < 10000 nM | CCCCN(CCCC)CCCCOc1ccc(/C=C/c2nc3ccccc3o2)cc1 |

System: Rattus norvegicus
Assay: Percent inhibition of total acid secretion in pylorus-ligated rats at an id dose of 20 mg/kg
Type: functional
Conditions: route intraduodenal

| SMILES | inhibition in vivo at 20 mg/kg |
| --- | --- |
| C(=C\c1nc2ccccc2o1)/c1ccc(OCCCCCn2ccnc2)cc1 | 45% |
| CCCCN(CCCC)CCCOc1ccc(/C=C/c2nc3ccccc3[nH]2)cc1 | 2.8% |
| CCCN(CCC)CCCCOc1ccc(/C=C/c2nc3ccccc3o2)cc1.Cl | 90% |
| CCCCN(CCCC)CCCOc1ccc(-c2csc(-c3ccc(Cl)cc3)n2)cc1 | 40% |
| C(=C\c1nc2ccccc2s1)/c1ccc(OCCCCN2CCCC2)cc1 | 20% |
| C(=C\c1nc2ccccc2s1)/c1ccc(OCCCN2CCCCC2)cc1 | 32% |
| FC(F)(F)c1ccc(-c2nc(-c3ccc(OCCCn4ccnc4)cc3)cs2)cc1 | 27% |
| CCCCN(CCCC)CCCOc1ccc(/C=C/c2nc3cc(Cl)ccc3s2)cc1 | 26% |
| CCCN(CCC)CCCOc1ccc(/C=C/c2nc3ccccc3o2)cc1 | 77% |
| CCCCN(CCCC)CCCOc1ccc(-c2csc(-c3cccnc3)n2)cc1 | 19% |
| CCCCN(CCCC)CCCOc1ccc(/C=C/c2nc3ccc(OC)cc3s2)cc1 | 31% |
| CCCCN(CCCC)CCOc1ccc(/C=C/c2nc3ccccc3o2)cc1 | 43% |
| CCCCN(CCCC)CCCOc1ccc(-c2csc(-c3ccc(C)cc3)n2)cc1 | 41% |
| CCCCN(CCCC)CCCOc1ccc(-c2csc(C)n2)cc1 | 8% |
